Assay results as given in US7368434B2, “Compounds useful for the inhibition of ALDH” (The Endowment for Research in Human Biology, Inc., priority 2002, dated 2008).
Several values for one entry are separate records, joined by “and”; a condition that tells them apart may be missing. Equal values may be shown once. Read-outs that look alike come from different tables or passages of the source.

Columns and labels:
[1] = taken from Fujita et al. (1964); cited from earlier work
[2] = tested on: MAO; experiment: MAO activity assay (membrane fraction of hamster liver mitochondria lysate); assay type: biochemical; conditions: for IC50: read-out: MAO inhibition IC50
Protocol: (§1) Several of the synthesized compounds were tested for MAO and ALDH-2 suppression activity. The membrane and supernatant fractions of the lysate of a gradient purified hamster liver mitochondria preparation were used as sources of MAO and ALDH-2, respectively. ALDH-2 and MAO activity assays were performed according to established procedures (Rooke et al. (2000) J. Med. Chem. 43:4169).

[3] = target: T1, ALDH-2 (Mesocricetus auratus, UniProt P81178); experiment: ALDH-2 activity assay (supernatant of hamster liver mitochondria lysate); assay type: biochemical; conditions: for IC50: read-out: ALDH-2 inhibition IC50
T1 construct: membrane and supernatant fractions of the lysate of a gradient purified hamster liver mitochondria preparation; from tissue; host or cells: hamster liver mitochondria, supernatant fraction of the lysate
T1 sequence (P81178 20-519): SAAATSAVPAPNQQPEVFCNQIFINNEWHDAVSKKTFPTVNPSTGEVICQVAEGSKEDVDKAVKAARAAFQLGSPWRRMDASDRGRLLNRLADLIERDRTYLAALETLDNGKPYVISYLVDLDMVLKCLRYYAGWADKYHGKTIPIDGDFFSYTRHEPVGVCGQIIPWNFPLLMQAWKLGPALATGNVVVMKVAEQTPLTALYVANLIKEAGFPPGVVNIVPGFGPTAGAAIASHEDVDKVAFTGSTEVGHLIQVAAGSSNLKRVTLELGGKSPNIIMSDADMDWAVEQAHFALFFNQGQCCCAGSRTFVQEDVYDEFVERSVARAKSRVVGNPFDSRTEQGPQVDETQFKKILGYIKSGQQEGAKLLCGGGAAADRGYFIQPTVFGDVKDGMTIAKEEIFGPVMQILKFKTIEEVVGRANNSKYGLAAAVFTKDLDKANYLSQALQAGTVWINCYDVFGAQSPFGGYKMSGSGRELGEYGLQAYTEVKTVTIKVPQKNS
Protocol: as §1

[4] = tested on: golden hamsters; experiment: Ethanol drinking experiments, two-bottle choice; assay type: in vivo; conditions: 0.07 mmol/day/hamster for 5 consecutive days
Protocol: Effects of the newly synthesized analogs on hamster ethanol intake were determined according to the method described below. Animals were male adult golden hamsters (outbred, Lakeview Lak: LVG[SYR]), purchased from Charles River Laboratories, Wilmington, Mass. 01887 or Harlan Sprague Dawley, Inc., Indianapolis, Ind. 46229. Upon arrival, hamsters were housed in a room maintained at 23° C., 35-45% humidity, with a 12/12 hr light/dark cycle (light on 0600-1800 hr), ad libitum access to Purina Chow (5001) and a 15% v/v ethanol solution. After a week, each hamster was transferred to an individual stainless steel cage (26×18×17.5 cm). Two 50 ml drinking bottles, one containing water and the other a 15% ethanol solution, were provided continuously. The bottles were placed in holders equipped with tilted platforms which direct spillage to tubes placed outside of the cages. The positions of the two drinking bottles on each cage were altered daily to prevent development of positional preference. Fluid intake was measured at 0900 hr each day. Hamsters that drank significant (>8 ml/day) and consistent (daily variance <±20%) amounts of ethanol solution were selected for testing. To establish baseline ethanol and water intake, 1 ml sterile saline was administered daily to each hamster between 1500-1600 hr for 6 days (saline control period, Day 1 to Day 6). A daily dose of 0.07 mmol of test compound was then administered for 5 consecutive days (treatment period, Day 7 to Day 11). After the last dose, ethanol and water intake were monitored for another 6 days (post treatment period, Day 12 to Day 17). […] At an equivalent dose, daidzin suppressed ethanol intake by about 55% (Table 1).

[5] = tested on: 5-HT metabolism in brain slices; experiment: 5-HT metabolism in hamster brain slices; assay type: cell-based
From the text: (§2) The effects of daidzin on monoamine metabolism were studied in hamster and rat liver and brain using tissue slices using 5-HT as the substrate. The effects of ethanol drinking on 5-HT metabolism in hamster liver and brain were examined. Freshly removed tissues were cut into small pieces (about 1 mm cubes) with a tissue-slicer, suspended in ice-cold phosphate buffered saline (PBS) (0.1 g/ml), and forced through a mesh 40 stainless steel screen mounted on a Millipore Swinnex Filter Holder. The minced tissues were allowed to sediment on ice before PBS was removed using a Pasteur pipette. The tissue slices were washed 5 more times each with 10 volumes of ice-cold PBS. After the final wash, tissues were suspended in 1 volume of PBS and dispensed using a micro-pipette with tips of i.d.=2 mm. 5-HT metabolism catalyzed by the tissue slices was assayed in a 1 ml assay medium containing PBS, 1 μM 5-HT, 100:1 tissue slices, and specified concentrations of daidzin or ethanol. Reactions were initiated by the addition of tissues and allowed to proceed for 30 min at 37° C. in a shaking water bath. Reactions were terminated by addition of 0.1 ml ice-cold 1 M HClO4, and 10 mM EDTA. […] Contents of 5-HT, 5-HIAL, 5-HTOL and 5-HIAA in the supernatants were analyzed by HPLC as described before (Rooke et al. (2000) J. Med. Chem. 43:4169).

[6] = tested on: 5-HT metabolism in brain slices; experiment: 5-HT metabolism in rat brain slices; assay type: cell-based
From the text: as §2

[7] = tested on: Syrian golden hamsters (Meso cricetus auratus); experiment: Oral potency: compound mixed in chow, two-bottle free-choice ethanol intake; assay type: in vivo; conditions: for Ethanol intake reduced by: oral
Protocol: The oral potency of hexzein (7-O-ω-carboxypentyldaidzein) in reducing ethanol intake in Syrian golden hamsters (Meso cricetus auratus) was examined under a two-bottle free-choice protocol. Hexzein was mixed with Purina rodent meal (5755M) at 0 mg: 1 g (control), 2 mg: 1 g, 4 mg: 1 g, and 5 mg: 1 g ratios and the mixtures were pressed into 1×1×0.5 inch pellets. Food pellets, ethanol solution and water were provided continuously throughout the study and their intake were measured every day at 5 pm. Hexzein given in this manner did reduce ethanol intake. Ethanol intake in hamsters on 2 mg/g, 4 mg/g, and 5 mg/g hexzein-Chow were reduced by 18.3±3.8%, 47.8±7.4% and 56.5±5.4%, respectively.

[8] = Tissue distribution study, liver of hamsters on compound-Chow; assay type: in vivo, hamster
[9] = tested on: 5-HT metabolism in hamster liver slices; experiment: 5-HT metabolism catalyzed by hamster liver slices; assay type: cell-based
From the text: (§3) The effects of daidzin on monoamine metabolism were studied in hamster and rat liver and brain using tissue slices using 5-HT as the substrate. The effects of ethanol drinking on 5-HT metabolism in hamster liver and brain were examined. Freshly removed tissues were cut into small pieces (about 1 mm cubes) with a tissue-slicer, suspended in ice-cold phosphate buffered saline (PBS) (0.1 g/ml), and forced through a mesh 40 stainless steel screen mounted on a Millipore Swinnex Filter Holder. The minced tissues were allowed to sediment on ice before PBS was removed using a Pasteur pipette. The tissue slices were washed 5 more times each with 10 volumes of ice-cold PBS. After the final wash, tissues were suspended in 1 volume of PBS and dispensed using a micro-pipette with tips of i.d.=2 mm. 5-HT metabolism catalyzed by the tissue slices was assayed in a 1 ml assay medium containing PBS, 1 μM 5-HT, 100:1 tissue slices, and specified concentrations of daidzin or ethanol. Reactions were initiated by the addition of tissues and allowed to proceed for 30 min at 37° C. in a shaking water bath. Reactions were terminated by addition of 0.1 ml ice-cold 1 M HClO4, and 10 mM EDTA. Samples were kept on ice for 30 min and centrifuged to obtained clear supernatants. Contents of 5-HT, 5-HIAL, 5-HTOL and 5-HIAA in the supernatants were analyzed by HPLC as described before (Rooke et al. (2000) J. Med. Chem. 43:4169).

[10] = tested on: 5-HT metabolism in rat liver slices; experiment: 5-HT metabolism catalyzed by rat liver slices; assay type: cell-based
From the text: as §3

[11] = Urine [5-HTOL]/[5-HIAA] ratio after daidzin administration; assay type: in vivo; conditions: dose that would suppress hamster ethanol intake by about 50%
[12] = tested on: ethanol-preferring Syrian golden hamsters; conditions: cited from earlier work
[13] = tested on: rats; conditions: cited from earlier work
[14] = tested on: isolated hamster liver mitochondria; conditions: cited from earlier work
[15] = tested on: isolated rat liver mitochondria; conditions: cited from earlier work

Molecule: 4′-Bromoisoflavone 7-ω-Ethoxycarbonylpentyl Ether [Analog 26]
- π (hydrophobic constant of the 4′-substituent) [1]: 0.86

Molecule: 7-Ethoxycarbonylpentyl-4′-Aminoisoflavone [Analog 33]
- π (hydrophobic constant of the 4′-substituent) [1]: −1.23

Molecule: O=c1c(-c2ccccc2)coc2cc(O)ccc12 [Analog 1]
- IC50 [2]: 8.6 µM

Molecule: COc1ccc2c(=O)c(-c3ccc(O)cc3)coc2c1 [Analog 2, 7-Methoxy-4′-Hydroxyisoflavone]
- π (hydrophobic constant of the 4′-substituent) [1]: −0.67

Molecule: COc1ccc2c(=O)c(-c3ccccc3)coc2c1 [Analog 3, 7-Methoxyisoflavone]
- π (hydrophobic constant of the 4′-substituent) [1]: 0.00

Molecule: CCOC(=O)CCCCCOc1ccc2c(=O)c(-c3ccccc3)coc2c1 [Analog 7, 7-O-Ethoxycarbonylpentylisoflavone]
- π (hydrophobic constant of the 4′-substituent) [1]: 0.00

Molecule: CC(=O)Oc1ccc2c(=O)c(-c3ccccc3)coc2c1 [Analog 10]
- IC50 [3]: 0.14 to 8 µM

Molecule: O=C1c2ccccc2C(=O)N1CCCCOc1ccc2c(=O)c(-c3ccccc3)coc2c1 [Analog 14]
- IC50 [3]: 0.14 to 8 µM
- MAO inhibition (in words) [2]: none of the 4′-H series (analogs 3, 5, 7, 9, 12 and 14) had any effect on MAO
- EtOH intake suppression, % [4]: 37 ± 3%

Molecule: O=c1c(-c2ccc(O)cc2)coc2cc(OCn3nnc4ccccc43)ccc12 [Analog 18]
- IC50 [3]: 0.14 to 8 µM

Molecule: CCOC(=O)c1oc2cc(O)ccc2c(=O)c1-c1ccccc1 [Analog 20, 2-Ethoxycarbonyl-7-Hydroxyisoflavone]
- melting point: 213 to 214 °C

Molecule: CCOC(=O)c1oc2cc(O)ccc2c(=O)c1-c1ccccc1 [Analog 20]
- ALDH-2 inhibition (in words) [3]: no effect on ALDH-2 activity

Molecule: O=C(O)c1oc2cc(O)ccc2c(=O)c1-c1ccccc1 [Analog 21, 2-Carboxy-7-Hydroxyisoflavone]
- melting point: 257 to 258 °C

Molecule: O=c1c(-c2ccc(F)cc2)coc2cc(O)ccc12 [Analog 23]
- IC50 [2]: 1.5 µM

Molecule: CCOC(=O)CCCCCOc1ccc2c(=O)c(-c3ccc(F)cc3)coc2c1 [Analog 24, 7-O-Ethoxycarbonylpentyl-4′-Fluoroisoflavone]
- π (hydrophobic constant of the 4′-substituent) [1]: 0.14

Molecule: O=c1c(-c2ccc(Br)cc2)coc2cc(O)ccc12 [Analog 25, 7-Hydroxy-4′-Bromoisoflavone]
- melting point: 266 to 268 °C

Molecule: O=c1c(-c2ccc(Br)cc2)coc2cc(O)ccc12 [Analog 25]
- IC50 [2]: 1 µM

Molecule: CCOC(=O)CCCCCOc1ccc2c(=O)c(-c3ccc([N+](=O)[O-])cc3)coc2c1 [Analog 28, 7-O-Ethoxycarbonylpentyl-4′-Nitroisoflavone]
- π (hydrophobic constant of the 4′-substituent) [1]: −0.28

Molecule: Cc1ccc(-c2coc3cc(O)ccc3c2=O)cc1 [Analog 29]
- IC50 [2]: 9 µM

Molecule: CCOC(=O)CCCCCOc1ccc2c(=O)c(-c3ccc(C)cc3)coc2c1 [Analog 30, 7-O-Ethoxycarbonylpentyl-4′-Methylisoflavone]
- π (hydrophobic constant of the 4′-substituent) [1]: 0.56

Molecule: Nc1ccc(-c2coc3cc(O)ccc3c2=O)cc1 [Analog 32]
- IC50 [2]: 12 µM and > 9 µM

Molecule: COc1ccc2c(=O)c(-c3ccccc3)coc2c1OC [Analog 34, 7,8-Dimethoxyisoflavone]
- melting point: 143 to 144 °C

Molecule: COc1ccc2c(=O)c(-c3ccccc3)coc2c1OC [Analog 34]
- ALDH-2 inhibition (in words) [3]: completely abolished ALDH-2 inhibitory activities
- Potency for MAO inhibition compared with counterpart analogs (in words) [2]: substantially decreased potencies for MAO inhibition

Molecule: CCc1ccc2c(=O)c(-c3ccccc3)coc2c1 [Analog 35, 7-Ethylisoflavone]
- melting point: 103 to 104 °C

Molecule: O=c1c(-c2ccc(O)cc2)coc2cc(O)ccc12 [Analog 40]
- IC50 [2]: 12 µM
- EtOH intake suppression, % [4]: 22 ± 5%

Molecule: CCO [Ethanol, ethanol]
- Effect on 5-HT metabolism (in words) [5]: did not effect 5-HT metabolism
- Effect on 5-HT metabolism (in words) [6]: did not effect 5-HT metabolism

Molecule: O=C(O)CCCCCOc1ccc2c(=O)c(-c3ccc(O)cc3)coc2c1 [Hexzein, 7-O-ω-carboxypentyldaidzein]
- Ethanol intake reduced by ([7]; 2 mg/g hexzein-Chow): 18.3±3.8%
- Ethanol intake reduced by ([7]; 4 mg/g hexzein-Chow): 47.8±7.4%
- Ethanol intake reduced by ([7]; 5 mg/g hexzein-Chow): 56.5±5.4%
- Concentration found in the liver (in words) ([8]; hamster, in vivo): pharmacologically relevant concentrations
- EtOH intake suppression, % [4]: 69 ± 12%

Molecule: Daidzin [Analog 42]
- Effect on ethanol intake (in words) ([7]; oral in chow, similar manner and equivalent dose range): failed to reduce ethanol intake
- Concentration found in the liver (in words) ([8]; hamsters on compound-Chow): no daidzin could be detected
- 5-HT depletion [9]: not 5-HT depletion
- 5-HTOL formation [9]: increases in the formation of 5-HTOL
- 5-HIAA formation ([9]; 1 μM 5-HT, 30 min at 37° C.): inhibited 5-HIAA formation
- 5-HT depletion [10]: not 5-HT depletion
- 5-HTOL formation [10]: increases in the formation of 5-HTOL
- 5-HIAA formation ([10]; 1 μM 5-HT, 30 min at 37° C.): inhibited 5-HIAA formation
- Effect on 5-HT metabolism (in words) [5]: did not effect 5-HT metabolism
- Effect on 5-HT metabolism (in words) [6]: did not effect 5-HT metabolism
- urine [5-HTOL]/[5-HIAA] ratio [11]: increased urine [5-HTOL]/[5-HIAA] ratio
- EtOH intake suppression, % [4]: about 55%
- Ethanol intake (in words) ([12]; administered orally): does not affect hamster ethanol intake
- Ethanol intake (in words) ([12]; ethanol-preferring Syrian golden hamsters): selectively suppress ethanol intake
- Ethanol intake (in words) [13]: selectively suppress ethanol intake
- Conversion of 5-HT and DA into 5-HIAA and DOPAC [14]: inhibits the conversion of monoamines
- Conversion of 5-HT and DA into 5-HIAA and DOPAC [15]: inhibits the conversion of monoamines
